Columns and labels:
active TGF-β1 signaling = test: inhibition of active TGF-β1 signaling in MLEC luciferase reporter cells; assay type: cell-based, mink
Description: In these experiments, SB505124 and galunisertib (Fisher, Inc.) inhibitors were added at 1-2 uM concentrations to MLEC plated in 96-well plates using a 1 hour pre-incubation before addition of human active TGF-β1 in […] concentrations with continued presence of the inhibitor for 18 hours overnight in standard conditions as described in Example 2 methods. A neutraceutical, the green tea catechin ECGC (Sigma) was also tested. Luciferase signals were determined after cell lysis and compared as in Example 2.

[1] = test system: TGF-β1 signaling caused by NSP15 activation of human latent TGF-β1; assay type: cell-based, mink; details: 1 hour pre-incubation; 2 μg/ml of antibody or 1-2 μM small molecule; 0-2.4 nM NSP15 plus 2 nM latent human TGF-β1; MLEC; FIG. 8
human latent TGF-β1 = target: T1, human latent TGF-β1 (Homo sapiens, UniProt P01137); assay type: cell-based; details: peptide incubated 45 minutes at 37° C. with 2 nM human latent TGF-β1, then 18 hours on MLEC; FIG. 5
T1 construct: purchased Acrobio, Inc
T1 sequence (P01137 30-278 limits assumed): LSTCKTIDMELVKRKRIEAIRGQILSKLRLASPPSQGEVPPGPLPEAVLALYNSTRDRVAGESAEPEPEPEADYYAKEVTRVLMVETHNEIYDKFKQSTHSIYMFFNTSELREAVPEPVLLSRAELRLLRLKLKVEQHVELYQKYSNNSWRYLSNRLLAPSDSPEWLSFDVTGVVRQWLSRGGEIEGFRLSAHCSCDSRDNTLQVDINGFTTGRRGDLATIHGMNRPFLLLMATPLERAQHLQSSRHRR

Row | Compound | block of NSP15 mediated effects on TGF-β1 signaling [1] | activation of latent TGF-β1 (luciferase signal, RLU) (human latent TGF-β1) | further results
1 | O=C(O[C@@H]1Cc2c(O)cc(O)cc2O[C@@H]1c1cc(O)c(O)c(O)c1)c1cc(O)c(O)c(O)c1 [ECGC] |  |  | inhibition of active TGF-β1 signaling at higher concentrations (active TGF-β1 signaling; 80 uM, subsequent experiments, not shown): 80%; effectiveness at blocking active TGF-β1 signaling (active TGF-β1 signaling; 1-2 μM concentrations, MLEC, FIG. 7): not effective
2 | Cc1cccc(-c2[nH]c(C(C)(C)C)nc2-c2ccc3c(c2)OCO3)n1 [SB505124] | block NSP15 mediated effects on TGF-β1 signaling |  | 
3 | Cc1cccc(-c2nn3c(c2-c2ccnc4ccc(C(N)=O)cc24)CCC3)n1 [galunisertib] | block NSP15 mediated effects on TGF-β1 signaling |  | 
4 | DKRFKQDGGWSHWSPW [TSP1] |  | not a significant activator of latent TGF-β1 | 
5 | KFILALRKLLFESEGP [SCR] |  | not | 
6 | LLIGLAKRFKESPFEL [NSP15 KRFK-region peptide, 16 amino acid synthetic peptide centered on the SARS-CoV2 NSP15 KRFK region] |  | activates latent TGF-β1 | 

Source: US20240218059A1, “TGF-Beta 1 INHIBITORS FOR PREVENTING AND TREATING SARS-COV-2” (The Regents of the University of Colorado, A Body Corporate, priority 2020, published 2024)
